# Results taken from patent publication US6875743B1, “Cell adhesion inhibitors” (Biogen, Inc., priority 1996, dated 2005).
# Numbered stars: 1 amine (or outer) side, 2 acyl side, 3 side chain; on linkers, the order of the positions; unused ones are H or OH. Square brackets hold non-standard residues; d marks the D form. Peptide text beside a SMILES is read from it. * marks the point of attachment. ξ: configuration not given here. Fmoc = O=C(OCC1c2ccccc2-c2ccccc21)*; Quinaldoyl = O=C(c1ccc2ccccc2n1)*; X1 = O=C(Cc1ccc(N[*:1])cc1)[*:2]; NH(2-Me-phenyl) = Cc1ccccc1N*; Tic = O=C(O)[CH]1Cc2ccccc2CN1; Cha = N[CH](CC1CCCCC1)C(=O)O; Nle = CCCC[CH](N)C(=O)O; PhAc = O=C(Cc1ccccc1)*; CO = O=C([*:1])[*:2]; ξNva = CCCC(N)C(=O)O; Bz = O=C(c1ccccc1)*; NHPh = c1ccc(N*)cc1
# Biological target: T1, VLA4 (Homo sapiens, UniProt P05556+P13612)
# T1 construct: endogenous in cells; host or cells: Ramos cells
# T1 sequence (P13612 34-1032): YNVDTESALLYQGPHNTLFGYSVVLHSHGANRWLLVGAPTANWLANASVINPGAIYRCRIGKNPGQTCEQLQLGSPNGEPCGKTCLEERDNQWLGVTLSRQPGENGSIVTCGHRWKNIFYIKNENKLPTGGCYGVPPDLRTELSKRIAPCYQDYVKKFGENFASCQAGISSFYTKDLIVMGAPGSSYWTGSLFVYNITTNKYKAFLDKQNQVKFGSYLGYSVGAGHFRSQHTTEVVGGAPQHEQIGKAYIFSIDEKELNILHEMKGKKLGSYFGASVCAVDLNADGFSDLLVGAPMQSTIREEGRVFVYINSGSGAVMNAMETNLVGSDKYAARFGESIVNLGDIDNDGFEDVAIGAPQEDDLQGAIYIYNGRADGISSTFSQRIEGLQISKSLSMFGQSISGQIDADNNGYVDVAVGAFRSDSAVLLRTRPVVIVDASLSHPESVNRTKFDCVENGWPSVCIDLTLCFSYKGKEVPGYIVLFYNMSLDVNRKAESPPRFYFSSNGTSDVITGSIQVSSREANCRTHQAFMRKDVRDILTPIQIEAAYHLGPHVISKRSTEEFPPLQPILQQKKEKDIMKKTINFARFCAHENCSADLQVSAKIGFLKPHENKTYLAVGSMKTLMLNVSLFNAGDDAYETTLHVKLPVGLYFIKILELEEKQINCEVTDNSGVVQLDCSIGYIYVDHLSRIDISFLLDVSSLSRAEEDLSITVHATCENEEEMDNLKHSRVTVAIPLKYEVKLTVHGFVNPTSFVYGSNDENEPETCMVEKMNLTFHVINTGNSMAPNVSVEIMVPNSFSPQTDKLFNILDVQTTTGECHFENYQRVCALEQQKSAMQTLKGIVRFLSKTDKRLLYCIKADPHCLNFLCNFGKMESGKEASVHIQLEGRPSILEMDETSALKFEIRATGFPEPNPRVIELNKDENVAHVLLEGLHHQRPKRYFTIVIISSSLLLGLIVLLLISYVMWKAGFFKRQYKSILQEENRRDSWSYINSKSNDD
# T1 sequence (P05556 21-798): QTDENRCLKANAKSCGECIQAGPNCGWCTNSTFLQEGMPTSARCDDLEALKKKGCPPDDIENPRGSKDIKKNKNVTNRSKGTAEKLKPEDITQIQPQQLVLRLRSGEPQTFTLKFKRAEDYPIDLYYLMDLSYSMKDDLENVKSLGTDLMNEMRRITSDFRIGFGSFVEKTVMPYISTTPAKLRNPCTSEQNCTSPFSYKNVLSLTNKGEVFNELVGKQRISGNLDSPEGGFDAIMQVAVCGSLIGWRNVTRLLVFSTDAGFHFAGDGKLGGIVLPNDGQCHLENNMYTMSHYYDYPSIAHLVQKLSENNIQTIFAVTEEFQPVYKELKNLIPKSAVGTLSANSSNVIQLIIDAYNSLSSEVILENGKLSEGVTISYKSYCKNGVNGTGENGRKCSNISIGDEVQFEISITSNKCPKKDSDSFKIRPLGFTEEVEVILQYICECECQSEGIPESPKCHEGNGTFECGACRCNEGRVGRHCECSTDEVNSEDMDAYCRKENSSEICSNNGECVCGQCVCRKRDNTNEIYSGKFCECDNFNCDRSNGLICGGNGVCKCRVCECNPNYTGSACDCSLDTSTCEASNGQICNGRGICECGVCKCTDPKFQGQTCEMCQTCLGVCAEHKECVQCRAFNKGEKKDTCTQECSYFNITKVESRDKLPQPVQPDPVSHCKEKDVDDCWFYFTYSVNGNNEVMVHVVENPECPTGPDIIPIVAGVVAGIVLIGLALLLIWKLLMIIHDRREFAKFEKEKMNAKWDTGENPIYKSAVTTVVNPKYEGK
# Experiment: Inhibition of VLA4-dependent adhesion to BSA-CS1
# Assay type: cell-based
# Conditions: binding of BCECF-labelled Ramos cells to BSA-CS1 coated wells, 2 mM MnCl2; read-out: IC50
# Excerpt: For example, the cell adhesion inhibitory activity of these compounds may be measured by determining the concentration of inhibitor required to block the binding of VLA-4-expressing cells to fibronectin- or CS1-coated plates. In this assay microtiter wells are coated with either fibronectin (containing the CS-1 sequence) or CS-1. If CS-1 is used, it must be conjugated to a carrier protein, such as bovine serum albumin, in order to bind to the wells. Once the wells are coated, varying concentrations of the test compound are then added together with appropriately labelled, VLA-4-expressing cells. Alternatively, the test compound may be added first and allowed to incubate with the coated wells prior to the addition of the cells. The cells are allowed to incubate in the wells for at least 30 minutes. Following incubation, the wells are emptied and washed. Inhibition of binding is measured by quantitating the fluorescence or radioactivity bound to the plate for each of the various concentrations of test compound, as well as for controls containing no test compound.
# VLA-4-expressing cells that may be utilized in this assay include Ramos cells, Jurkat cells, A375 melanoma cells, as well as human peripheral blood lymophocytes (PBLs). The cells used in this assay may be fluorescently or radioactively labelled.
# This assay was used to assess the potency of VLA4-directed inhibitory compounds of this invention.
# We dissolved BSA-SMCC (Pierce Chemical, Rockford, Ill.; Catalog #77115) in H2O at a concentration of 10 mg/mL. [SEQ ID NO:4]: […](“Cys-Tyr-CS1 peptide”), which we synthesized by conventional solid phase chemistry and purified by HPLC, was dissolved in 10 mM HEPES pH 5, 50 mM NaCl and 0.1 mM EDTA also at a concentration of 10 mg/mL. We then mixed 500 μL of BSA-SMCC, 250 μL of Cys-Tyr-CS1 peptide and 75 μL of 1 mM HEPES pH 7.5 and allowed the conjugation reaction to proceed for 30 minutes. We stopped the reaction by adding 1 μL of beta-mercaptoethanol. Samples were analyzed for cross-linking by SDS-PAGE.
# We coated the wells of a Linbro titertek polystyrene 96-well flat bottom plate (Flow Laboratories, Maclean, Va.; catalog #76-231-05) with 100 μL of the above-described BSA-CS1 solution diluted to 1 μg/mL in 0.05 M NaHCO3 (15 mM NaHCO3, 35 mM Na2CO3) pH 9.2. Some wells were not coated with CS1 in order to assess non-specific cell binding (NSB). The plate was then incubated overnight at 4° C.
# Following this incubation, the contents of the wells were removed by inverting and blotting the plate. All of the wells were then blocked with 100 μL of 1% BSA in PBS, 0.02% NaN3, for a minimum of one hour at room temperature.
# Ramos cells are grown, maintained and labelled in RPMI 1640 culture medium containing 1% BSA. Just prior to running the assay, we added 2′,7′-bis-(2-carboxyethyl)-5 (and -6) carboxyfluorescein acetoxymethyl ester (“BCECF-AM”; Molecular Probes Inc., Eugene, Oreg.; catalog #B-1150) to a final concentration of 2 μM to a culture of Ramos cells (4×10^6 cells/mL). We incubated the cells for 20 minutes at 37° C.
# Following labelling, the cells were washed twice in assay buffer (24 mM TRIS, 137 mM NaCl, 2.7 mM KCl, pH 7.4, containing 0.1% BSA and 2 mM glucose) to remove any cations originating from the culture medium. The cells were then resuspended in assay buffer to 4×10^6 cells/mL and 2 mM MnCl2 was added to upregulate VLA4 on the surface of the cells.
# Immediately prior to running the assay, we removed the BSA blocking solution from the 96-well plates and washed the wells with 100 μL of assay buffer. We then added to each well 25 μL of test cell adhesion inhibitory compound at 2× the final concentration and 25 μL of the labelled Ramos cells. […] Each concentration of compound was tested in triplicate. The compound and cells are allowed to incubate for 30 minutes at room temperature.
row,IC50,Structure (SMILES)
1,< 50 nM,Cc1ccccc1NC(=O)Nc1ccc(CC(=O)N[C@@H](CCC(=O)O)C(=O)N[C@@H](CC(=O)O)C(=O)N[C@@H](CCC(=O)O)C(N)=O)cc1 [Compound 267]
2,> 10000 nM,CC(C)C[C@H](NC(=O)[C@H](Cc1ccccc1)NC(=O)c1ccccc1)C(=O)N[C@@H](CC(=O)O)C(=O)N[C@H](C(=O)O)C(C)C [Compound 153] (Bz-FLDV-OH)
3,> 10000 nM,CCC(C)C(NC(=O)CCc1ccc(O)cc1)C(=O)NC(CC(=O)O)C(=O)NCC(C)C (stereo not drawn) [Compound 17]
4,50 to 10000 nM,CCCCC(NC(=O)C(NC(=O)C(CC(=O)O)NC(=O)C(CC(C)C)NC(=O)Cc1ccccc1)C(C)C)C(=O)O (stereo not drawn) [Compound 43] (PhAc-LDV[Nle]-OH; configuration not given here)
5,< 50 nM,CSCC[C@H](NC(=O)[C@H](CC(=O)O)NC(=O)[C@@H](CC(C)C)NC(=O)Cc1ccc(NC(=O)Nc2ccccc2C)cc1)C(N)=O [Compound 292]
6,< 50 nM,CSCC[C@H](NC(=O)[C@H](CC(=O)O)NC(=O)[C@H](CCC(N)=O)NC(=O)Cc1ccc(NC(=O)Nc2ccccc2C)cc1)C(N)=O [Compound 303]
7,> 10000 nM,CC(C)C(NC(=O)C(CC(=O)O)NC(=O)C(CC1CCCCC1)NC(=O)C1Cc2ccccc2CN1)C(=O)O (stereo not drawn) [Compound 86] (H-[Tic][Cha]DV-OH; configuration not given here)
8,< 50 nM,Cc1ccccc1NC(=O)Nc1ccc(CC(=O)N[C@@H](CC(C)C)C(=O)N[C@@H](CC(=O)O)C(=O)N[C@@H](CC(=O)O)C(N)=O)cc1 [Compound 230]
9,< 50 nM,Cc1ccccc1NC(=O)Nc1ccc(CC(=O)N[C@H](CC(C)C)C(=O)N[C@@H](CC(=O)O)C(=O)N[C@@H](Cc2c[nH]c3ccccc23)C(N)=O)cc1 [Compound 295]
10,< 50 nM,CC[C@H](C)[C@H](NC(=O)[C@H](CC(=O)O)NC(=O)[C@H](CC(C)C)NC(=O)Cc1ccc(NC(=O)Nc2ccccc2C)cc1)C(=O)O [Compound 345]
11,< 50 nM,CSCC[C@H](NC(=O)Cc1ccc(NC(=O)Nc2ccccc2C)cc1)C(=O)N[C@@H](CC(=O)O)C(=O)N[C@@H](CC(C)C)C(N)=O [Compound 220]
12,< 50 nM,Cc1ccccc1NC(=O)Nc1ccc(CC(=O)N2CCCC2C(=O)NC(CC(=O)O)C(=O)NC(CO)C(N)=O)cc1 (stereo not drawn) [Compound 251]
13,> 10000 nM,CCCCCCNC(=O)C(NC(=O)C(CC(=O)O)NC(=O)C(CC(C)C)NC(=O)CCc1ccc(O)cc1)C(C)C (stereo not drawn) [Compound 119]
14,< 50 nM,CSCC[C@H](NC(=O)[C@H](CC(=O)O)NC(=O)[C@@H](NC(=O)Cc1ccc(NC(=O)Nc2ccccc2C)cc1)[C@@H](C)O)C(N)=O [Compound 258]
15,> 10000 nM,CC(C)C[C@H](NC(=O)C1COc2ccc(Cl)cc2C1)C(=O)N[C@@H](CC(=O)O)C(=O)N[C@H](C(=O)O)C(C)C (stereo partly drawn) [Compound 386]
16,< 50 nM,Cc1ccccc1NC(=O)Nc1ccc(CC(=O)N[C@H](C(=O)N[C@@H](CC(=O)O)C(=O)N[C@H](CCC(=O)O)C(N)=O)[C@@H](C)O)cc1 [Compound 260]
17,> 10000 nM,Cc1ccccc1NC(=O)Nc1ccc(CC(=O)N[C@H](C(=O)N[C@@H](CC(C)C)C(=O)N2CCC[C@H]2C(=O)N[C@@H](CC(=O)O)C(=O)O)C(C)C)cc1 [Compound 339] ({NH(2-Me-phenyl)-CO}-[X1]VLPD-OH)
18,< 50 nM,Cc1ccccc1NC(=O)Nc1ccc(CC(=O)N[C@@H](CCC(=O)O)C(=O)N[C@@H](CC(=O)O)C(=O)N[C@@H](Cc2c[nH]c3ccccc23)C(N)=O)cc1 [Compound 272]

# The next lines start with the compound.
row,Structure (SMILES),IC50
1,CCC(C)C(NC(=O)C(CC(=O)O)NC(=O)C(CC(C)C)NC(=O)Cc1ccccc1)C(=O)NC (stereo not drawn) [Compound 55] (PhAc-Leu-Asp-Ile-NHMe; configuration not given here),> 10000 nM
2,Cc1ccccc1NC(=O)Nc1ccc(CC(=O)N2CCC[C@H]2C(=O)N[C@@H](CC(=O)O)C(=O)N[C@H](C(N)=O)[C@@H](C)O)cc1 [Compound 246],< 50 nM
3,CC(C)C[C@@H](NC(=O)Cc1ccc(NC(=O)Nc2ccccc2)cc1)C(=O)N[C@@H](CC(=O)O)C(=O)N[C@H](C(=O)N1CCC[C@H]1C(N)=O)C(C)C [Compound 209] ({NHPh-CO}-[X1][dL]DVP-NH2),50 to 10000 nM
4,CCCC(NC(=O)C(CC(=O)O)NC(=O)C(CC(C)C)NC(=O)c1ccc2ccccc2n1)C(=O)NC (stereo not drawn) [Compound 52],> 10000 nM
5,CCCC(NC(=O)Cc1ccccc1)C(=O)N[C@@H](CC(=O)O)C(=O)N[C@H](C(=O)NC)C(C)C (stereo partly drawn) [Compound 49] (PhAc-[ξNva]-Asp-Val-NHMe),> 10000 nM
6,CC(C)C[C@H](NC(=O)c1ccc2c(c1)CCO2)C(=O)N[C@@H](CC(=O)O)C(=O)N[C@H](C(=O)O)C(C)C [Compound 387],> 10000 nM
7,Cc1ccccc1NC(=O)Nc1ccc(CC(=O)N[C@H](CC(C)C)C(=O)N[C@@H](CC(=O)O)C(=O)N[C@@H](CCC(=O)O)C(N)=O)cc1 [Compound 290],< 50 nM
8,CC(C)CNC(=O)[C@@H](NC(=O)[C@H](CC(=O)O)NC(=O)[C@H](CC(C)C)NC(=O)Cc1ccc(NC(=O)Nc2ccccc2)cc1)C(C)C [Compound 205],50 to 10000 nM
9,Cc1ccccc1NC(=O)Nc1ccc(CC(=O)N[C@H](C(=O)N[C@@H](CC(=O)O)C(=O)N[C@@H](Cc2c[nH]c3ccccc23)C(N)=O)[C@@H](C)O)cc1 [Compound 261],< 50 nM
10,CNC(=O)[C@@H](NC(=O)[C@H](CC(=O)O)NC(=O)[C@H](CC(C)C)NC(=O)Cc1ccc(NC(=O)Nc2ccccc2)cc1)C(C)C [Compound 204],50 to 10000 nM
11,Cc1ccccc1NC(=O)Nc1ccc(CC(=O)N[C@@H](CC(C)C)C(=O)N[C@@H](CC(=O)O)C(=O)N[C@H](CCC(=O)O)C(N)=O)cc1 [Compound 238],< 50 nM
12,Cc1ccccc1NC(=O)Nc1ccc(CC(=O)N[C@@H](CO)C(=O)N[C@@H](CC(=O)O)C(=O)N[C@@H](CC(=O)O)C(N)=O)cc1 [Compound 275],< 50 nM
13,Cc1ccccc1NC(=O)Nc1ccc(CC(=O)N[C@@H](CCC(=O)O)C(=O)N[C@@H](CC(=O)O)C(=O)N[C@H](CO)C(N)=O)cc1 [Compound 273],< 50 nM
14,Cc1ccccc1NC(=O)Nc1ccc(CC(=O)N[C@H](CC(C)C)C(=O)N[C@@H](CC(=O)O)C(=O)N[C@H](CCC(=O)O)C(N)=O)cc1 [Compound 294],< 50 nM
15,CC(C)C[C@H](NC(=O)OCC1c2ccccc2-c2ccccc21)C(=O)N[C@@H](CC(=O)O)C(=O)N[C@H](C(=O)O)C(C)C [Compound 366] (Fmoc-Leu-Asp-Val-OH),> 10000 nM
16,CCCCC(NC(=O)C(NC(=O)C(CC(=O)O)NC(=O)C(CC(C)C)NC(=O)c1ccc2ccccc2n1)C(C)C)C(=O)O (stereo not drawn) [Compound 44] (Quinaldoyl-LDV[Nle]-OH; configuration not given here),50 to 10000 nM
17,Cc1ccccc1NC(=O)Nc1ccc(CC(=O)N[C@@H](CCC(N)=O)C(=O)N[C@@H](CC(=O)O)C(=O)N[C@@H](CC(C)C)C(N)=O)cc1 [Compound 298],< 50 nM
18,Cc1ccccc1NC(=O)Nc1ccc(CC(=O)N[C@@H](CCC(=O)O)C(=O)N[C@@H](CC(=O)O)C(=O)N[C@@H](CC(=O)O)C(N)=O)cc1 [Compound 263],< 50 nM
19,Cc1ccccc1NC(=O)Nc1ccc(CC(=O)NC(CC(C)C)C(=O)NC(CC(=O)O)C(=O)NC(C(=O)N2CCOCC2)C(C)C)cc1 (stereo not drawn) [Compound 329],< 50 nM
20,COC(=O)[C@@H](CC(C)C)NC(=O)[C@H](CC(=O)O)NC(=O)[C@@H]1CCCN1C(=O)Cc1ccc(NC(=O)Nc2ccccc2C)cc1 [Compound 410],50 to 10000 nM
21,Cc1ccccc1NC(=O)Nc1ccc(CC(=O)N[C@@H](CC(C)C)C(=O)N[C@@H](CCC(=O)O)C(=O)N[C@H](C(N)=O)C(C)C)cc1 [Compound 311],< 50 nM
